Experiments:
[1] = tested on: Phakopsora pachyrhizi (the causal agent of Asian soybean rust); assay: Test A: preventive spray on soybean seedlings, visual disease rating (100 = 100% control; * 50 ppm, ** 10 ppm, *** 250 ppm); type: in vivo; settings: 100 = 100% disease control; for pest or weed control at 10 ppm: Phakopsora pachyrhizi
How it was run: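 Preventive test: one day after spraying compound (acetone/water suspension, 250 ppm PEG400), seedlings received rust spore inoculum, 24 h in saturated air then 8 days in growth chamber, both at 22 °C. Disease control scored visually, 100 = complete, 0 = none, relative to untreated controls.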

[2] = tested on: Puccinia recondita f. sp. tritici (the causal agent of wheat leaf rust); assay: Test B: preventive spray on wheat seedlings, disease rating (100 = 100% control; * 50 ppm, ** 10 ppm, *** 250 ppm); type: in vivo; settings: 100 = 100% disease control; for pest or weed control at 10 ppm: Puccinia recondita
How it was run: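 Preventive test: Puccinia recondita f. sp. tritici spores were inoculated one day after run-off spraying of wheat seedlings with test suspension (acetone/water 50/50, 250 ppm PEG400). After 24 h in saturated air and 6 days in a growth chamber, both at 20° C, control was scored 0–100 versus untreated plants.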

[3] = 10 ppm test suspension, 0 = no control
[4] = 10 ppm test suspension, soybean seedlings
[5] = 10 ppm test suspension, wheat seedlings
[6] = 50 ppm test suspension, 0 = no control
[7] = 50 ppm test suspension, soybean seedlings
[8] = 50 ppm test suspension, wheat seedlings

Compound	Test A disease control rating [1, 4] [%]	Test B disease control rating [2, 5] [%]	other results
CCO/C(=C\Oc1cccc(Cn2cc(C(=O)OCC(C)C)cn2)c1)C(F)(F)F [compound 334]			Test A disease control rating [1, 3]: 100%; Test B disease control rating [2, 3]: 0%
CCO/C(=C\Oc1ccc(Cn2ccc(C(=O)OCC(C)=O)n2)cc1)C(F)(F)F [compound 359]			Test A disease control rating [1, 3]: 100%; Test B disease control rating [2, 3]: 0%
CCO/C(=C\Oc1ccc(Cn2ncnc2C#N)cc1)C(F)(F)F [compound 81]	0	0	
CCOC(=O)c1cnn(COc2ccc(OCC(O)(O)C(F)(F)F)cc2)c1 [Compound 366, ethyl 1-[[4-(3,3,3-trifluoro-2,2-dihydroxypropoxy)phenoxy]methyl]-1H-pyrazole-4-carboxylate]			pest or weed control at 10 ppm [1, 3]: 79%; pest or weed control at 10 ppm [2, 3]: 55%
NCc1ccc(OCC2(C(F)(F)F)OCCO2)cc1 [compound 174]	0	0	
CCOC(=O)c1cnn(Cc2ccc(CO/C=C(\OCC)C(F)(F)F)cc2)c1 [compound 167]	38	0	
CCOC(=COc1ccc(CCl)cc1)C(F)(F)F [compound 434]			Test A disease control rating [1, 6]: 0%; Test B disease control rating [2, 6]: 0%
FC(F)(F)C1(COc2ccc(-c3ccccc3)cc2)OCCO1 [compound 190]	0	0	
CCO/C(=C\Oc1ccc(Cn2cc(C(=O)NCC(F)(F)F)cn2)cc1)C(F)(F)F [compound 106]	0	0	
CCOC(=O)c1cnn(Cc2ccc(OCC3(C(F)(F)F)OC(=O)C(C)O3)cc2)c1 (stereo not drawn) [compound 187]	93	74	
C=CC(F)(F)OC(=O)c1cnn(Cc2ccc(OCC(O)(O)C(F)(F)F)cc2)c1 [compound 38]	97	89	
CCO/C(=C\Oc1ccc(S(C)(=O)=O)cc1)C(F)(F)F [compound 60]	0	0	
CCO/C(=C\Oc1ccc(CN2CCC(C)(C)C2=O)cc1)C(F)(F)F [compound 225]	0	0	
CCOC(=O)c1ccn(Cc2ccc(OC)c(O/C=C(\OCC)C(F)(F)F)c2)n1 [compound 407]			Test A disease control rating [1, 6]: 0%; Test B disease control rating [2, 6]: 0%
O=C(OCCCCl)c1cnn(Cc2ccc(OCC3(C(F)(F)F)OCCO3)cc2)c1 [compound 161]	100	0	
CCO/C(=C\Oc1ccc(Cn2cc(C#N)cn2)cc1)C(F)(F)F [compound 205]	0	0	
O=C(OCC1OCCO1)c1cnn(Cc2ccc(OCC3(C(F)(F)F)OCCO3)cc2)c1 [compound 204]	100	0	
CCO/C(=C\Oc1cccc(Cc2nc(C(=O)NCC(F)(F)F)cs2)c1)C(F)(F)F [compound 377]			pest or weed control at 10 ppm [1, 3]: 44%; pest or weed control at 10 ppm [2, 3]: 0%
C#CCOC(=O)c1ccn(Cc2ccc(O/C=C(\OCC)C(F)(F)F)cc2)n1 [compound 325]			Test A disease control rating [1, 3]: 100%; Test B disease control rating [2, 3]: 0%
CCNC(=O)N1CC(c2ccc(OCC3(C(F)(F)F)OCCO3)cc2)C1 [compound 411]			Test A disease control rating [1, 6]: 87%; Test B disease control rating [2, 6]: 0%
CCO/C(=C\Oc1cccc(Cn2cc(C(=O)OCCCOC)cn2)c1)C(F)(F)F [compound 351]			Test A disease control rating [1, 3]: 100%; Test B disease control rating [2, 3]: 0%
CCOC(=O)c1ccnn1Cc1ccc(F)c(O/C=C(\OCC)C(F)(F)F)c1 [compound 419]			Test A disease control rating [1, 3]: 0%; Test B disease control rating [2, 3]: 0%
C#CCO/C(=C\Oc1ccc(Cn2cc(C(=O)OCC)cn2)cc1)C(F)(F)F [compound 56]	38	0	
CCOC(=O)c1cnn(Cc2cc(O/C=C(\OCC)C(F)(F)F)ccc2F)c1 [compound 302]			Test A disease control rating [1, 6]: 99%; Test B disease control rating [2, 6]: 0%

Compound	Test A disease control rating [1, 4] [%]	Test B disease control rating [2, 5] [%]	other results
CCO/C(=C\Oc1ccc(Cn2ncc3cccnc32)cc1)C(F)(F)F [compound 87]	0	0	
CS(=O)(=O)c1ccc(OCC2(C(F)(F)F)OCCO2)cc1 [compound 24]	81	91	
CCOC(=O)c1cnn(Cc2ccc(OCC3(C(F)(F)F)OCCCO3)cc2)c1 [compound 52]	99	0	
CCOC(=COc1ccc(COC)cc1)C(F)(F)F [compound 433]			Test A disease control rating [1, 6]: 0%; Test B disease control rating [2, 6]: 0%
CN(C)C(=O)C1=NOC(c2ccc(OCC3(C(F)(F)F)OCCO3)cc2)C1 (stereo not drawn) [compound 22]	38	0	
CCNC(=O)N1CC(c2ccc(OC=C(OCC)C(F)(F)F)cc2)C1 [compound 412]			Test A disease control rating [1, 6]: 100%; Test B disease control rating [2, 6]: 0%
CCO/C(=C\Oc1ccc(Cn2ccc(C(=O)OCC(C)C)n2)cc1)C(F)(F)F [compound 357]			Test A disease control rating [1, 3]: 100%; Test B disease control rating [2, 3]: 9%
O=C(OCC1CCCC1)c1cnn(Cc2ccc(OCC3(C(F)(F)F)OCCO3)cc2)c1 [compound 284]			Test A disease control rating [1, 3]: 100%; Test B disease control rating [2, 3]: 0%
CS(=O)(=O)c1ccc(OCC(O)(O)C(F)(F)F)cc1 [compound 31]	44	93	
CCO/C(=C\Oc1cccc(Cn2cc(C(=O)OCCCCl)cn2)c1)C(F)(F)F [compound 338]			Test A disease control rating [1, 3]: 100%; Test B disease control rating [2, 3]: 0%
CCO/C(=C\Oc1cccc(Cn2cc(C(=O)OC(C)C)cn2)c1)C(F)(F)F [compound 332]			Test A disease control rating [1, 3]: 100%; Test B disease control rating [2, 3]: 0%
CCOC(=O)c1cnn(CCc2ccc(OCC3(C(F)(F)F)OCCO3)cc2)c1 [compound 133]	79	0	
O=C(OCc1ccccc1)c1cnn(Cc2ccc(OCC(O)(O)C(F)(F)F)cc2)c1 [compound 47]			Test A disease control rating [1, 7]: 100%; Test B disease control rating [2, 8]: 95%
CN(C)C(=O)c1cnn(Cc2ccc(OCC3(C(F)(F)F)OCCO3)cc2)c1 [compound 198]	0	0	
CCO/C(=C\Oc1ccc(Cn2cc(C(=O)O)cn2)cc1)C(F)(F)F [compound 116]	100	0	
CCOC(=O)c1cnn(C(C)c2ccc(O/C=C(\OCC)C(F)(F)F)cc2)c1 (stereo not drawn) [compound 267]			Test A disease control rating [1, 3]: 94%; Test B disease control rating [2, 3]: 0%
COC(=O)c1cnn(Cc2ccc(OCC3(C(F)(F)F)OCCO3)cc2)c1 [compound 13]	99	0	
CCOC(=O)Cc1nnnn1Cc1ccc(O/C=C(\OCC)C(F)(F)F)cc1 [compound 84]	0	0	
CCO/C(=C\Oc1ccc(Cc2nc(C(=O)NCC3CC3)cs2)cc1)C(F)(F)F [compound 130]	100	0	
C=CCOC(=O)c1cnn(Cc2cccc(O/C=C(\OCC)C(F)(F)F)c2)c1 [compound 333]			Test A disease control rating [1, 3]: 100%; Test B disease control rating [2, 3]: 0%
N#CCNC(=O)c1cnn(Cc2ccc(OCC3(C(F)(F)F)OCCO3)cc2)c1 [compound 164]	31	0	
CCOC(=O)C1=NOC(Cc2ccc(OC=C(OCC)C(F)(F)F)cc2)C1 (stereo not drawn) [compound 287]			Test A disease control rating [1, 6]: 77%; Test B disease control rating [2, 6]: 0%
CCOC(=O)c1cnn(Cc2ccc(CCC(O)(O)C(F)(F)F)cc2)c1 [compound 66]			Test A disease control rating [1, 7]: 92%; Test B disease control rating [2, 8]: 89%
CCOC(=O)c1cnn(COc2ccc(O/C=C(\OCC)C(F)(F)F)cc2F)c1 [compound 425]			pest or weed control at 10 ppm [1, 3]: 100%; pest or weed control at 10 ppm [2, 3]: 0%

Source: patent publication US20240122180A1, “FUNGICIDAL HALOMETHYL KETONES AND HYDRATES AND THEIR MIXTURES” (FMC Corporation, priority 2020, published 2024)
